For 18 compounds, Emax and EC50 results are on record in patent US8410132B2, “Modulators of cystic fibrosis transmembrane conductance regulator” (Vertex Pharmaceuticals Incorporated, priority 2007, dated 2013).

Molecules are shown by their SMILES.

The test deals with T1, ΔF508-CFTR (Homo sapiens, UniProt P13569, DEL508-508).
T1 construct: expressed in transfected cells; host or cells: Fisher rat epithelial (FRT) cells expressing ΔF508-CFTR (Ussing chamber); NIH3T3 cells stably expressing ΔF508-CFTR (whole-cell recordings)
T1 sequence (P13569 with tags, fused parts or gaps DEL508-508): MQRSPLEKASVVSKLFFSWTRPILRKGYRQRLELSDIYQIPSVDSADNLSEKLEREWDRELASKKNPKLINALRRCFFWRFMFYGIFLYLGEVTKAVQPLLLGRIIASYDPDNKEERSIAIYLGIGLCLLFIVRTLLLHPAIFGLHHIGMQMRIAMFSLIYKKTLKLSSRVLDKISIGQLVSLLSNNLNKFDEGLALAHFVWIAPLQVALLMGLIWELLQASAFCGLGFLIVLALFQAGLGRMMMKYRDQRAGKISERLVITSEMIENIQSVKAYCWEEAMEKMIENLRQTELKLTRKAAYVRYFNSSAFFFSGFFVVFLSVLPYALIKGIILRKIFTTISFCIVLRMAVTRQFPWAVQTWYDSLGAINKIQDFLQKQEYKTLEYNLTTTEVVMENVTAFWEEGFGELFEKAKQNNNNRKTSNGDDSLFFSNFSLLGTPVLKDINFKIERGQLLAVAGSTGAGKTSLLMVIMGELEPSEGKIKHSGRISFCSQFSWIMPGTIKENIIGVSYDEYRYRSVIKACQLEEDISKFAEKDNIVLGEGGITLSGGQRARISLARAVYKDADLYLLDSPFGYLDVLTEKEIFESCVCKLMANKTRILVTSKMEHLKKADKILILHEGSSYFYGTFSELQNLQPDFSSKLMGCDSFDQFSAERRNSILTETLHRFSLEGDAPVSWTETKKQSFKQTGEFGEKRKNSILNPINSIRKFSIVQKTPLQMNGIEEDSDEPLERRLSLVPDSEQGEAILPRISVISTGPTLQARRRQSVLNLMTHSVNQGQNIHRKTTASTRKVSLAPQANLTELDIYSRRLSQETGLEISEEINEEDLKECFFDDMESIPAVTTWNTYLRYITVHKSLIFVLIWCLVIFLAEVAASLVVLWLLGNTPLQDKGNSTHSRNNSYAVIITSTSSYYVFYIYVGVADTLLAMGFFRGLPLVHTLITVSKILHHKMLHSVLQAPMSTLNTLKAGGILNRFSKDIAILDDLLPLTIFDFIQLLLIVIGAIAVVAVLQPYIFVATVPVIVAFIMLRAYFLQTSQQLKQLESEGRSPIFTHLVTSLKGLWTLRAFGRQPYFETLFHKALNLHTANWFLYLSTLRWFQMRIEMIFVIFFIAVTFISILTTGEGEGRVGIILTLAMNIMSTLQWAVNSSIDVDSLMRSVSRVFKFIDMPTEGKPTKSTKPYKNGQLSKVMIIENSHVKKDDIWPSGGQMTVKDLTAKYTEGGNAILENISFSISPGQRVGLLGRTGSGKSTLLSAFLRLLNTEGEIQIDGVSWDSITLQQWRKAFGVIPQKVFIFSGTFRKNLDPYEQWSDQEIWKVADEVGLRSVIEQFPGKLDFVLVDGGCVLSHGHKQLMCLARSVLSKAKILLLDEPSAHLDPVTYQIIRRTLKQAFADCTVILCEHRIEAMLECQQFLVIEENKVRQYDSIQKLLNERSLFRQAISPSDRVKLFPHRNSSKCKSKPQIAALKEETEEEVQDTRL
The test is described as follows: Assay for detecting and measuring ΔF508-CFTR potentiation properties of compounds (membrane potential optical method / Ussing chamber). Format: cell-based. The following applies: for Emax: relative efficacy, efficacy compared to that of the known potentiator genistein; for EC50: ΔF508-CFTR potentiation. The text has this:
Assays for Detecting and Measuring ΔF508-CFTR Potentiation Properties of Compounds
Membrane Potential Optical Methods for Assaying ΔF508-CFTR Modulation Properties of Compounds
The optical membrane potential assay utilized voltage-sensitive FRET sensors described by Gonzalez and Tsien (See, Gonzalez, J. E. and R. Y. Tsien (1995) “Voltage sensing by fluorescence resonance energy transfer in single cells” Biophys J 69(4): 1272-80, and Gonzalez, J. E. and R. Y. Tsien (1997) “Improved indicators of cell membrane potential that use fluorescence resonance energy transfer” Chem Biol 4(4): 269-77) in combination with instrumentation for measuring fluorescence changes such as the Voltage/Ion Probe Reader (VIPR) (See, Gonzalez, J. E., K. Oades, et al. (1999) “Cell-based assays and instrumentation for screening ion-channel targets” Drug Discov Today 4(9): 431-439).
These voltage sensitive assays are based on the change in fluorescence resonant energy transfer (FRET) between the membrane-soluble, voltage-sensitive dye, DiSBAC2(3), and a fluorescent phospholipid, CC2-DMPE, which is attached to the outer leaflet of the plasma membrane and acts as a FRET donor. Changes in membrane potential (Vm) cause the negatively charged DiSBAC2(3) to redistribute across the plasma membrane and the amount of energy transfer from CC2-DMPE changes accordingly. The changes in fluorescence emission were monitored using VIPR™ II, which is an integrated liquid handler and fluorescent detector designed to conduct cell-based screens in 96- or 384-well microtiter plates.
Identification of Potentiator Compounds
Typical protocol utilized a basolateral to apical membrane Cl^− concentration gradient. To set up this gradient, normal ringers was used on the basolateral membrane and was permeabilized with nystatin (360 μg/ml), whereas apical NaCl was replaced by equimolar sodium gluconate (titrated to pH 7.4 with NaOH) to give a large Cl^− concentration gradient across the epithelium. All experiments were performed 30 min after nystatin permeabilization. Forskolin (10 μM) and all test compounds were added to both sides of the cell culture inserts. The efficacy of the putative ΔF508-CFTR potentiators was compared to that of the known potentiator, genistein.
Fisher rat epithelial (FRT) cells expressing ΔF508-CFTR (FRTΔ^F508-CFTR) were used for Ussing chamber experiments for the putative ΔF508-CFTR modulators identified from our optical assays. The cells were cultured on Costar Snapwell cell culture inserts and cultured for five days at 37° C. and 5% CO2 in Coon's modified Ham's F-12 medium supplemented with 5% fetal calf serum, 100 U/ml penicillin, and 100 μg/ml streptomycin. Prior to use for characterizing the potentiator activity of compounds, the cells were incubated at 27° C. for 16-48 hrs to correct for the ΔF508-CFTR. To determine the activity of corrections compounds, the cells were incubated at 27° C. or 37° C. with and without the compounds for 24 hours.
Compounds of the invention are useful as modulators of ATP binding cassette transporters. Table 3 below illustrates the EC50 and relative efficacy of certain embodiments in Table 1.

One may read the Emax as the maximal effect, on the per cent scale that the assay sets. The term EC50 denotes the midpoint of the concentration-response curve. Regarding `CC1(C)CCCN(c2ccc(NC(=O)c3c[nH]c4cnccc4c3=O)c(C(F)(F)F)c2)C1` [Cmpd 18, N-(4-(3,3-dimethylpiperidin-l-yl)-2-(trifluoromethyl)phenyl)-4-oxo-1,4-dihydro-1,7-naphthyridine-3-carboxamide], the maximal response (Emax) lay in the range of 25 to 100% and the EC50 is less than 10 µM.
The like results for `Cc1cc2c(=O)c(C(=O)Nc3cc(O)c(C4(C)CCCCC4)cc3F)c[nH]c2cn1` [Cmpd 17, N-(2-fluoro-5-hydroxy-4-(1-methylcyclohexyl)phenyl)-6-methyl-4-oxo-1,4-dihydro-1,7-naphthyridine-3-carboxamide] were, in that order, less than 25% and 10 to 25 µM.
With `CC(C)c1ccccc1NC(=O)c1c[nH]c2ccncc2c1=O` [Cmpd 4, N-(2-isopropylphenyl)-4-oxo-1,4-dihydro-1,6-naphthyridine-3-carboxamide], the Emax is 25 to 100% and the EC50 is less than 10 µM.
Taken in the same sequence, the figures for `CCCc1ccccc1NC(=O)c1c[nH]c2ccncc2c1=O` [Cmpd 3, 4-oxo-N-(2-propylphenyl)-1,4-dihydro-1,6-naphthyridine-3-carboxamide] were 25 to 100% and less than 10 µM.
`O=C(Nc1ccc(N2CCCC2)cc1C(F)(F)F)c1c[nH]c2ccncc2c1=O` [Cmpd 7, 4-oxo-N-(4-(pyrrolidin-1-yl)-2-(trifluoromethyl)phenyl)-1,4-dihydro-1,6-naphthyridine-3-carboxamide]: the Emax was 25 to 100% and the EC50 is less than 10 µM.
The like results for `O=C(Nc1ccc(N2CCCC2)cc1C(F)(F)F)c1c[nH]c2cnccc2c1=O` [Cmpd 11, 4-oxo-N-(4-(pyrrolidin-1-yl)-2-(trifluoromethyl)phenyl)-1,4-dihydro-1,7-naphthyridine-3-carboxamide] were, in that order, 25 to 100% and less than 10 µM.
Regarding `O=C(Nc1ccc2cc[nH]c2c1)c1c[nH]c2ccncc2c1=O` [Cmpd 6, N-(1H-indol-6-yl)-4-oxo-1,4-dihydro-1,6-naphthyridine-3-carboxamide], the Emax is less than 25% and the EC50 was less than 10 µM.
As to `O=C(Nc1ccccc1-c1ccccc1)c1c[nH]c2ccncc2c1=O` [Cmpd 5, N-(biphenyl-2-yl)-4-oxo-1,4-dihydro-1,6-naphthyridine-3-carboxamide], the Emax is 25 to 100% and the EC50 was less than 10 µM.
The like results for `CC(C)(C)c1cc(C(C)(C)C)c(NC(=O)c2c[nH]c3cnccc3c2=O)cc1O` [Cmpd 9, N-(2,4-di-tert-butyl-5-hydroxyphenyl)-4-oxo-1,4-dihydro-1,7-naphthyridine-3-carboxamide] were, in that order, 25 to 100% and less than 10 µM.
In the case of `CC1(c2cc(F)c(NC(=O)c3c[nH]c4cnccc4c3=O)cc2O)CCCCC1` [Cmpd 13, N-(2-fluoro-5-hydroxy-4-(1-methylcyclohexyl)phenyl)-4-oxo-1,4-dihydro-1,7-naphthyridine-3-carboxamide], the Emax lay in the range of 25 to 100% and the EC50 was less than 10 µM.
As for `O=C(NC(c1ccccc1)c1ccccc1)c1c[nH]c2ccncc2c1=O` [Cmpd 1, N-benzhydryl-4-oxo-1,4-dihydro-1,6-naphthyridine-3-carboxamide], the Emax was greater than 100% and the EC50 was less than 10 µM.
The like results for `O=C(NCC1(c2ccc(OC(F)(F)F)cc2)CCCC1)c1c[nH]c2ccncc2c1=O` [Cmpd 8, 4-oxo-N-((1-(4-(trifluoromethoxy)phenyl)-cyclopentyl)methyl)-1,4-dihydro-1,6-naphthyridine-3-carboxamide] were, in that order, 25 to 100% and less than 10 µM.
`O=C(Nc1cc2[nH]ccc2cc1C(F)(F)F)c1c[nH]c2cnccc2c1=O` [Cmpd 14, 4-oxo-N-(5-(trifluoromethyl)-1H-indol-6-yl)-1,4-dihydro-1,7-naphthyridine-3-carboxamide]: the Emax is 25 to 100% and the EC50 was less than 10 µM.
In the case of `O=C(Nc1ccc2c(C(F)(F)F)c[nH]c2c1)c1c[nH]c2cnccc2c1=O` [Cmpd 16, 4-oxo-N-(3-(trifluoromethyl)-1H-indol-6-yl)-1,4-dihydro-1,7-naphthyridine-3-carboxamide], the Emax was 25 to 100% and the EC50 was less than 10 µM.
With `C[C@H]1CCCN1c1ccc(NC(=O)c2c[nH]c3cnccc3c2=O)c(C(F)(F)F)c1` [Cmpd 12, (S)-N-(4-(2-methylpyrrolidin-1-yl)-2-(trifluoromethyl)phenyl)-4-oxo-1,4-dihydro-1,7-naphthyridine-3-carboxamide], the Emax fell in the range of 25 to 100% and the EC50 was less than 10 µM.
Take `O=C(NCC(c1ccccc1)c1ccccc1)c1c[nH]c2ccncc2c1=O` [Cmpd 2, N-(2,2-diphenylethyl)-4-oxo-1,4-dihydro-1,6-naphthyridine-3-carboxamide]: the Emax is 25 to 100% and the EC50 is less than 10 µM.
In the case of `Cc1cc2c(=O)c(C(=O)Nc3cc4[nH]ccc4cc3C(F)(F)F)c[nH]c2cn1` [Cmpd 15, 6-methyl-4-oxo-N-(5-(trifluoromethyl)-1H-indol-6-yl)-1,4-dihydro-1,7-naphthyridine-3-carboxamide], the Emax is 25 to 100% and the EC50 is less than 10 µM.
Taken in the same sequence, the figures for `CC(C)(C)c1cc2cc[nH]c2cc1NC(=O)c1c[nH]c2cnccc2c1=O` [Cmpd 10, N-(5-tert-butyl-1H-indol-6-yl)-4-oxo-1,4-dihydro-1,7-naphthyridine-3-carboxamide] were 25 to 100% and less than 10 µM.
